Our source for the EC50 values is patent publication US20170298055A1, “sGC STIMULATORS” (IRONWOOD PHARMACEUTICALS, INC., priority 2014, published 2017).

In the experiment the target is T1, soluble guanylate cyclase (sGC) (Homo sapiens, UniProt Q02108+Q02153).
T1 construct: endogenously expressing soluble guanylate cyclase (sGC); endogenous in cells; host or cells: HEK293
T1 sequence (Q02153 1-619): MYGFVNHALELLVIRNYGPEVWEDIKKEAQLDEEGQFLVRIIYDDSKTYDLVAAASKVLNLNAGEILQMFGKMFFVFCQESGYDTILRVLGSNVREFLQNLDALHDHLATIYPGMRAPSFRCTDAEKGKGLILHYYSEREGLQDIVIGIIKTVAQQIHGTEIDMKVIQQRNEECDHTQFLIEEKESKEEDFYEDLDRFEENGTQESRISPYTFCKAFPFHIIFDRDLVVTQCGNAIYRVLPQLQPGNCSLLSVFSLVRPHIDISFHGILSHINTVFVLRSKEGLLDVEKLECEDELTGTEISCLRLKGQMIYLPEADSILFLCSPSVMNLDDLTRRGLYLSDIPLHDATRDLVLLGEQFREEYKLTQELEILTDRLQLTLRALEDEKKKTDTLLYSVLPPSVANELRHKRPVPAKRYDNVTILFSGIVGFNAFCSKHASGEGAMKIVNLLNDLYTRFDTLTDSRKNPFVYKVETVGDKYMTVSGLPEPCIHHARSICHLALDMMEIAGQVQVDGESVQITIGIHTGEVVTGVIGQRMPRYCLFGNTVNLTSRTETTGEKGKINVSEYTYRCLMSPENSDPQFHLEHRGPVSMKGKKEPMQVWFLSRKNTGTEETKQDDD
T1 sequence (Q02108 1-690): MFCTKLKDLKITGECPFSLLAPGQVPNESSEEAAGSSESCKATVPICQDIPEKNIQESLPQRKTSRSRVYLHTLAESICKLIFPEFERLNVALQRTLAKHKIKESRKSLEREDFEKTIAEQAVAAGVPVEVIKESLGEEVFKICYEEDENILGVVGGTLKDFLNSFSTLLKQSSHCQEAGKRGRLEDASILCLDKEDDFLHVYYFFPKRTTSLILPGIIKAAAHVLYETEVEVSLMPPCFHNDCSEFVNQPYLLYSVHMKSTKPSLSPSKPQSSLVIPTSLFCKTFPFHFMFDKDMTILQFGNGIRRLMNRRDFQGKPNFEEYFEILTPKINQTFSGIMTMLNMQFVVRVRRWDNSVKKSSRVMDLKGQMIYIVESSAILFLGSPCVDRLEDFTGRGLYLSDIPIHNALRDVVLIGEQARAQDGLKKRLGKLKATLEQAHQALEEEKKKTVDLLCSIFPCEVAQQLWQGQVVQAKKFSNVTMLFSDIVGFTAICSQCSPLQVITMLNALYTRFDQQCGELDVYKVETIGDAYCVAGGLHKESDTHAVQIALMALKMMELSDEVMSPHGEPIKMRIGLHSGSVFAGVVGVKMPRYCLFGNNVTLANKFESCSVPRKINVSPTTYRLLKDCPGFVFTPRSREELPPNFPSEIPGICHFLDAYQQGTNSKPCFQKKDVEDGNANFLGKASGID
The experiment is described as follows: sGC-HEK-cGMP assay, LC/MS detection, with SNP incubation (Example 2A). Type of experiment: cell-based. Particulars: HEK293 cells, in the presence of 10 μM SNP; top of concentration-response curve not fitted to 100%; read-out: sGC_HEK_LCMS uEC50 (nM) Binned (unconstrained). As to the method: Human embryonic kidney cells (HEK293), endogenously expressing soluble guanylate cyclase (sGC), were used to evaluate the activity of test compounds. Compounds stimulating the sGC receptor should cause an increase in the intracellular concentration of cGMP. HEK 293 cells were seeded in Dulbecco's Modification of Eagle's Medium supplemented with fetal bovine serum (10% final) and L-glutamine (2 mM final) in a 200 μL volume at a density of 1×10^5 cells/well in a poly-D-lysine coated 96 well flat bottom plate and grown overnight at 37° C. Medium was aspirated and cells were washed with 1× Hank's Buffered Saline Salt Solution (200 μL). Cells were then incubated for 15 minutes at 37° C. with 0.5 mM 3-isobutyl-1-methylxanthine (200 μL). Test article and sodium nitroprusside were then added to the assay mixture (2 μL each) and incubated at 37° C. for 10 minutes. After the 10 minute incubation, the assay mixture was aspirated and 0.1M HCl (200 μL) was added to the cells. The plate was incubated at 4° C. for 30 minutes in the 0.1M HCl to stop the reaction and lysed the cells. The plates were then centrifuged at 1,200 g for 5 minutes at room temperature. Supernatants were collected and transferred to a new flat bottom 96 well plate for analysis. Vehicle controls were carried out using DMSO (1%). A known sGC stimulator, BAY 41-2272, was used as the positive control. Samples were diluted with an equal volume of 1 M Ammonium Acetate (pH 7) to neutralize samples for better chromatography. A 2× cGMP standard curve was prepared in 0.1 M HCl and then diluted with an equal volume of 1 M Ammonium Acetate, with the following final concentrations in nM: 1024, 512, 256, 128, 64, 32, 16, 8, 4, 2, 1. cGMP concentrations were determined from each sample using the LC/MS conditions (Table 2 below) and calculated standard curve. EC50 values were calculated from concentration-response curves generated with GraphPad Prism Software.

Turning to `CN(C)CCOc1nc(-c2cc(-c3ccon3)n(Cc3ccccc3F)n2)ncc1F` [Compound I-2], the EC50 lay within 100 to 1000 nM.

On to `OCCOc1nc(-c2cc(-c3ccon3)n(Cc3ccccc3F)n2)ncc1F` [Compound I-1], for which the EC50 was in the range of 100 to 1000 nM.
